Here are results for 10 compounds from US20250250308A1, “METHODS AND COMPOSITIONS WITH ANTIFUNGAL ACTIVITY” (priority 2022, published 2025).

Values joined by “and” are separate entries in the source; they are usually repeats but may differ in a detail not shown here. Equal values may be shown once. “Also recorded” adds a separate entry of the source. Square brackets hold non-standard residues; d marks the D form. Peptide text beside a SMILES is read from it.

Data set [1] can be described thus: Peptide serum stability assay. It is filed as in vitro ADME. To be noted: 10% human serum, 37° C., HPLC; read-out: Peptide remaining after 24 hours in human serum. The method, then:
Peptide serum stability assay. One mL of RPMI supplemented with 10% (v/v) of human serum (type AB) were aliquoted and temperature-equilibrated at 37° C. for 15 min before adding a concentrated stock peptide solution resulting in a final peptide concentration of 100 μM. For each time point, 100 μL of the reaction solution was removed and added to 200 μL 96% ethanol for precipitation of serum proteins. The sample was cooled (4° C.) for 15 min and then spun at 18,000 g for 2 min to pellet the precipitated serum proteins. The reaction supernatant was analyzed using HPLC with absorbance detected at 280 nm. The peptide peak was detected first without serum treatment to assess the area under the curve for the peptide of interest. At each time point the area under the curve was calculated by HPLC and then divided by the untreated peptide area under the curve to determine the percent remaining.

For data set [2], the system named is C. albicans. Briefly: Killing of C. elegans by C. albicans (survival of infected nematodes). The note with it: for Protection of C. elegans from C. albicans infection (survival): 1 nM peptide; for Median survival: C. albicans infected C. elegans exposed to 1 nM peptide, one value per trial. It is filed as in vivo. The method, then:
The α7 helix is sufficient to protect C. elegans and inhibit surface adhesion. Based on this structural characterization, fragments of EntV were examined to identify those structural moieties that retained antifungal activity. Synthetic peptides were generated of each of the four alpha helices (plus two flanking amino acids) from the active C-terminus of EntV—α4, α5, α6 and α7 (FIG. 1A) as well as an α4-α6 construct. The peptides were tested for their ability to protect C. elegans against C. albicans infection as established in previous work (Cruz et al., 2013; Graham et al., 2017).
Killing of C. elegans by C. albicans. The methodology used for the C. elegans infection assays was performed, with a few modifications, as described ((Breger et al., 2007; Cruz et al., 2013; Graham et al., 2017; Peleg et al., 2008)). Briefly, C. elegans glp-4(bn2); sek-1(km-4) (Breger et al., 2007) nematodes were propagated and maintained on E. coli strain OP50(Brenner, 1974) that was seeded onto nematode growth medium (NGM) agar using standard techniques (Hope, 1999). To synchronize the animals, L1 stage worms on non-starved plates were washed off, filtered through a 10 μm filter (pluriSelect, pluriStrainer 10 μm), harvested by centrifugation, transferred to OP50 seeded plates, and grown to the L4 stage. To prepare the infection plates, C. albicans strain […] (Gillum et al., 1984) was grown in YPD broth for 24 h at 37° C. with agitation. 500 μl of the culture was plated onto BHI solid medium containing gentamycin (10 μg/ml) and grown for 24 h at 37° C. The synchronized, L4 C. elegans were washed off the OP50 plates in 2 ml sterile M9 buffer and washed once, centrifuging at 750×g for 30 seconds to collect animals. Animals were infected by placing them on the SC5314 lawn for 4 h at 25° C. Following this exposure, they were washed off the plate and washed four times with 2 ml of sterile M9. The nematodes were then pipetted (˜30 per well with 2 wells per condition for a total of ˜60 worms assayed) into six-well plates with 2 ml of liquid medium (20% BHI broth and 80% M9) containing the indicated concentrations of test compounds. Plates were incubated at 25° C., and worm death was scored daily. Kaplan-Meier survival curves were generated and analyzed as described in the quantification and statistical analysis section.

For data set [3], the system named is C. albicans. The data set is described as follows: Mouse OPC (oropharyngeal candidiasis) model. The note with it: 100 nM in drinking water for 5 days following inoculation. The format is in vivo. The method, then:
Mouse OPC model. The efficacy of EntV fragments were tested in the OPC model as described (Graham et al., 2017; Solis and Filler, 2012). Mice were immunosuppressed by injecting 225 mg/kg cortisone acetate subcutaneously 1 d before inoculation, and subsequently on days 1 and 3 of the infection. Group size was 6-8. To prepare the inoculum, 1 ml of C. albicans (SC5314) overnight culture grown at 30° C. in YPD broth was washed twice in PBS before resuspension in sterile Hanks' balanced salt solution (HBSS) at a concentration of 1×10^6 cells/mL. Calcium alginate swabs were soaked in this inoculum for 5 minutes prior to inoculation. Mice were anesthetized using ketamine and xylazine and placed on pre-warmed isothermal pads and the swabs were placed sublingually for 75 min. Mice were given additional doses of ketamine (50 mg/kg), as necessary. After inoculation, mice were given drinking water with EntV fragments or DMSO (0.01%) in the drinking water ad libitum. Mice were euthanized at 5 d after inoculation, unless noted. The tongues were excised and cut in half laterally for tissue histology and assessment of fungal burden.
For tissue histology the tongue sample was placed in 10% zinc-buffered formalin overnight and stored in 80% ethanol, before embedding in paraffin. For each tongue, 5 μm sections were prepared using a Leica microtome and stained using Periodic Acid-Schiff (PAS) stain. Epithelial invasion was measured from 40× images taken of the entire tissue section of each tongue half with the total area of epithelium and infected epithelium were measured using ImageJ (version 1.6). Measurements were totaled and expressed as a percentage of total infected epithelium relative to the entire epithelial area (Graham et al., 2017; Moyes et al., 2016).
For examination of fungal burden, qPCR was used by amplifying a 269-bp fragment of the internal transcribed spacer 2 (ITS2) between the 5.8S and 28S ribosomal RNA genes of C. albicans (Graham et al., 2017; Khot et al., 2009). DNA was extracted from homogenized tongue tissue using the Yeast DNA Extraction Kit (Thermo Scientific) according to the protocol with minor modifications. The ITS2 fragment was amplified by qPCR was performed with a CFX96 Real-Time System with a C1000 Touch thermal cycler (BioRad). C. albicans gDNA was quantified using FastStart Universal SYBR Green master mix with ROX (Roche). To screen for contamination and background fluorescence during the qPCR amplification, no template controls were used.

Data set [4] deals with Cryptococcus neoformans. The data set is described as follows: High-throughput Sytox Orange C. elegans infection assay, C. neoformans. It is filed as in vivo. The note with it: five days of infection; vs. DMSO control. How it is done: FIGS. 15A-15D: Secondary testing of gain-of-function variants from screen. (FIG. 15A) Survival over time of C. elegans infected with C. albicans and exposed to 1 nM of the indicated peptides. Statistical differences in survival were compared to animals in the exposure condition on the right of the legend (12aa-WT) by Mantel-Cox log rank analysis. An n of 30 animals was used and one representative trial is shown. (FIG. 15B) Percent survival as measured by the high-throughput Sytox Orange assay following five days of infection with C. albicans is shown. Means were calculated with the error bars representing the SEM. Statistical differences in survival were compared to animals in the untreated condition (DMSO) by one-way ANOVA followed by Dunnett's multiple comparison test. An n of 30 animals was used per experimental group. (FIG. 15C) Adhesion of C. albicans to tissue-culture treated plates following incubation with 10 nM of the indicated peptides is shown. […] Means were calculated with the error bars representing the SEM. Statistical significance in comparison to the DMSO control group was determined using one-way ANOVA followed by Tukey's multiple comparison test. […] (FIG. 15D) Percent survival as measured by the high-throughput Sytox Orange assay following five days of infection with C. neoformans is shown. Means were calculated with the error bars representing the SEM. […]

In data set [5] the test system is C. albicans. The data set is described as follows: High-throughput Sytox Orange C. elegans infection assay, C. albicans. The format is in vivo. To be noted: five days of infection; vs. DMSO control. The method, then:
FIGS. 15A-15D: Secondary testing of gain-of-function variants from screen. (FIG. 15A) Survival over time of C. elegans infected with C. albicans and exposed to 1 nM of the indicated peptides. Statistical differences in survival were compared to animals in the exposure condition on the right of the legend (12aa-WT) by Mantel-Cox log rank analysis. An n of 30 animals was used and one representative trial is shown. (FIG. 15B) Percent survival as measured by the high-throughput Sytox Orange assay following five days of infection with C. albicans is shown. Means were calculated with the error bars representing the SEM. Statistical differences in survival were compared to animals in the untreated condition (DMSO) by one-way ANOVA followed by Dunnett's multiple comparison test. An n of 30 animals was used per experimental group. (FIG. 15C) Adhesion of C. albicans to tissue-culture treated plates following incubation with 10 nM of the indicated peptides is shown. A non-adherent strain (Δefg1/Δcph1) was used as a control. Means were calculated with the error bars representing the SEM. Statistical significance in comparison to the DMSO control group was determined using one-way ANOVA followed by Tukey's multiple comparison test. An n of three biological replicates, each with four technical replicates, was used. (FIG. 15D) Percent survival as measured by the high-throughput Sytox Orange assay following five days of infection with C. neoformans is shown. Means were calculated with the error bars representing the SEM. Statistical differences in survival were compared to animals in the untreated condition (DMSO) by one-way ANOVA followed by Dunnett's multiple comparison test. An n of 30 animals was used per experimental group.
High-throughput screening of this library was performed by employing established assays to assess antifungal agent efficacy. […] By using these assays in concert, each individual peptide was assessed using two approaches that probe different aspects of C. albicans virulence.

For data set [6], the system named is C. auris. The data set is described as follows: Survival of C. elegans infected with C. auris. It is filed as in vivo. To be noted: 1 nM peptide. How it is done:
FIGS. 6A-6D: EntV peptides have activity against many fungal species and strains. Survival over time of C. elegans infected with C. auris, (FIG. 6A), C. neoformans, (FIG. 6B), and C. albicans, (FIG. 6C), paired clinical isolates before (AzS: fluconazole-susceptability) and after gaining fluconazole resistance (AzR), (FIG. 6D). Peptides were added at 1 nM and fluconazole at 4 ug/ml. Statistical differences in survival were compared to animals to the DMSO vehicle control by Mantel-Cox log rank analysis. An n of 60 was used and one representative trial is shown. Exact p values from top to bottom: (FIG. 6A) <0.0001, <0.0001, (FIG. 6B) <0.0001, <0.0001, (FIG. 6C) 0.0013, 0.0004, 0.0035, (FIG. 6D) 0.0050, 0.0040, 0.5539.
EntV peptides have activity against other fungal species and strains. […] Paired clinical isolates of C. albicans, in which fluconazole-resistance had been gained following in-patient evolution were tested and it was determined that animals infected with both the original strain as well as the fluconazole-resistant descendent were protected by EntV ([…]).
Killing of C. elegans by C. albicans. […] Plates were incubated at 25° C., and worm death was scored daily. Kaplan-Meier survival curves were generated and analyzed as described in the quantification and statistical analysis section.

Consider `CC(C)C[C@@H](NC(=O)[C@@H](C)NC(=O)[C@@H](CC(C)C)NC(=O)[C@@H](CCC(N)=O)NC(=O)CNC(=O)[C@@H](C)NC(=O)[C@H](N)C(C)C)C(=O)N[C@H](Cc1c[nH]c2ccccc12)C(=O)N[C@H](C)C(=O)N[C@@H](C(=O)N[C@H](CCC(N)=O)C(=O)N[C@H](CS)C(N)=O)C(C)C` [12aa D-form peptide] (H-[dV][dA]G[dQ][dL][dA][dL][dW][dA][dV][dQ][dC]-NH2), for which, in data set [1], the amount remaining at 24 h, 100 μM was approximately 35%. Also, the “Protection of C. elegans from C. albicans infection (survival)” value (from here on “Protection of C. elegans”) in data set [2] is “remained as effective as the original in protecting C. elegans against infection with C. albicans”.

As for AGQLALWAVQC [11aa], in data set [2], the “Median survival” value is 9 days and 10 days. Also, in data set [3], the “Fungal burden in the tongue (C. albicans DNA by qPCR)” value (“Fungal burden in the tongue” below) is “reduced fungal burden in the OPC model, but not to the same degree as the 12-mer” and the “Hyphal (epithelial) invasion of the tongue” value (“Hyphal (epithelial) invasion” below) was “some reduction”.

Regarding GQLALWAVQC [10aa], the “Survival of C. elegans by Sytox Orange assay, C. neoformans” value in data set [4] is given as “not effective”. For the same compound, the “Median survival” value in data set [2] was 8 days and 9 days. Moreover, in data set [3], the “Fungal burden in the tongue” value is given as “reduced fungal burden in the OPC model, but not to the same degree as the 12-mer” and the “Hyphal (epithelial) invasion” value is “some reduction”.

In the case of LVLAFWAVVC [P3], the “Survival of C. elegans by Sytox Orange assay, C. albicans” value (“Survival of C. elegans … C. albicans” for short) in data set [5] is on record as “statistically significant antifungal activity”. Also, the “Protection of C. elegans” value in data set [2] was “as effective in protecting the animals as the original 12aa peptide”.

In the case of TNAAAAQQGGIICLLVVWLS [α7 - disrupt], in data set [2], the “Median survival” value amounted to 6 days.

With TNAIIVAGQLALWAVQCG [α7], the “Survival of C. elegans infected with C. auris” value in data set [6] is given as “protected animals from death”. Moreover, in data set [2], the “Protection of C. elegans” value is “protected C. elegans from C. albicans infection as well or better than full-length, active EntV^68”; the “Median survival” value was 10.5 days and 12 days and 11 days and 10 days and 13 days and 14 days.

With TNVGALWICGLAVIQAAQLS [α7 - random], the “Median survival” value in data set [2] amounted to 7 days.

Take VLLALWALVC [P5]: the “Protection of C. elegans” value in data set [2] was “as effective in protecting the animals as the original 12aa peptide”.

Consider VQLALWAVQC [P4], for which, in data set [5], the “Survival of C. elegans … C. albicans” value was “statistically significant antifungal activity”. For the same compound, the “Protection of C. elegans” value in data set [2] is given as “as effective in protecting the animals as the original 12aa peptide”. In data set [3], the “Fungal burden in the tongue” value is given as “significantly reduced; also recorded: more effective than P1 in reducing fungal burden” and the “Hyphal (epithelial) invasion” value is reported as “significantly reduced”.

For VVLALWAVQC [P1], the “Survival of C. elegans … C. albicans” value in data set [5] is given as “statistically significant antifungal activity”. The “Protection of C. elegans” value in data set [2] is “as effective in protecting the animals as the original 12aa peptide”. For the same compound, in data set [3], the “Fungal burden in the tongue” value is listed as “significantly reduced” and the “Hyphal (epithelial) invasion” value was “significantly reduced”.

The term fraction remaining denotes the share of the starting amount still present when the sample was taken.
